Measurements reported in US20210052633A1, “HYALURONIC ACID SYNTHESIS PROMOTER, METHOD FOR PROMOTING HYALURONIC ACID SYNTHESIS, AND CELL EVALUATION METHOD” (SEIKAGAKU CORPORATION, priority 2018, published 2021).

Legend:
[1] = tested on: Human synovial cells derived from a patient with rheumatism (HFLS-RA); assay: Hyaluronic acid synthesis by synovial cells ([3H] glucosamine incorporation, HPLC fractionation by molecular weight); type: cell-based
Procedure: Compound 1 or sodium hyaluronate (HA) (ARTZ Dispo (registered trademark) (manufactured by Seikagaku Corporation)) was mixed in a solution containing a phosphate buffer solution (GIBCO) and an α-MEM (GIBCO) concentrated medium. Further, each reagent was added and mixed in the resulting solution so that the final concentrations were as follows: 10% (v/v) fetal bovine serum (hereinafter FBS (MP Biomedicals)), 10 ng/mL recombinant human IL-1β/IL-1F2 (hereinafter IL-1β (R & D Systems)), 1% (w/v) penicillin/streptomycin (GIBCO), and 370 kBq/mL [^3H] glucosamine (Perkin Elmer). As a result, the following five solutions were obtained as test substances.
Human synovial cells derived from a patient with rheumatism (HFLS-RA, CELL APPLICATIONS, INC.) were subcultured and grown in a 175-cm^2 flask. In the cell culture, Basal medium (containing 10% (v/v) Growth supplement and 1% (w/v) penicillin/streptomycin) (manufactured by Cell Applications, Inc.) was used. Thereafter, the cells were seeded in a 6-well plate at 3.0×10^5 cells/2 mL/well and cultured for about 24 hours until confluence was reached. In the cell culture, α-MEM medium (containing 10% (v/v) FBS and 1% (w/v) penicillin/streptomycin) was used. After removing the culture supernatant, 2 mL of the test substance was added to the cells, and the cells were further cultured for 48 hours. The culture was performed at 37° C. in a CO2 incubator (5% (v/v) CO2). After completion of the culture, the culture supernatant was collected and cryopreserved in an ultra-low temperature freezer until measurement.
Since glucosamine is a constituent monosaccharide of hyaluronic acid, in hyaluronic acid newly synthesized in the cells after addition of the test substance, [^3H] glucosamine is incorporated. Therefore, hyaluronic acid in the collected culture supernatant was separated according to molecular weight using HPLC, and fractions were collected every 0.5 minutes using a fraction collector. To each of the collected fractions, 0.5 mL of a scintillation fluid was added and mixed. Thereafter, the radioactivity (dpm, disintegrations per minute) of each fraction was measured using a scintillation counter, and the radioactivity (the amount of [^3H] glucosamine incorporated into newly produced hyaluronic acid) was evaluated. The HPLC conditions are as follows.
Mobile phase: a solution of 5 mmol/L phosphate buffer solution (pH 6.0) with 0.82% (w/v) NaCl:acetonitrile=2:1 (v:v)
Column: OH pak SB-805 HQ column (Shodex (registered trademark)), column temperature: 35° C.
The hyaluronic acid standard solution was separated by HPLC, and UV absorption at a wavelength of 210 nm was measured. Fraction No. in which the peak top of the hyaluronic acid standard solution of each molecular weight is collected was calculated. As the hyaluronic acid standard solutions, Select-HATM 500 k (average molecular weight: 528,000), Select-HATM 1,000 k (average molecular weight: 1,076,000), and Select-HATM 2,500 k (average molecular weight: 2,420,000) were used.
The same procedure as in Example 1 was performed. Note that the culture supernatant was collected at respective time points (8, 24, 36, 48, and 72 hours) after adding the test substance to the cells.
A control solution, a 0.01% (w/v %) compound 1 solution, and a 0.01% (w/v %) sodium hyaluronate (HA) solution were prepared in the same manner as in Example 1. DF-Na (0.014 μg/mL, 0.14 μg/mL, 1.4 μg/mL, and 14 μg/mL) solutions were prepared by dissolving DF-Na in the control solution. Further, a HA+DF-Na mixed liquid was obtained by dissolving DF-Na (1.4 μg/mL) in the 0.01% (w/v %) sodium hyaluronate (HA) solution.
(§1) The same procedure as in Example 1 was performed.
The same procedure as in Example 1 was performed. Note that a column (OH pak SB-807 HQ column (Shodex (registered trademark)) having higher separability on the high molecular weight side than the HPLC column (OH pak SB-805 HQ column (Shodex (registered trademark)) was used.

[2] = tested on: Human synovial cells derived from a patient with rheumatism (HFLS-RA); assay: Hyaluronidase treatment of culture supernatant, then fractionation and radioactivity measurement; type: cell-based; details: Example 2, 0.01% (w/v)
Procedure: It was verified that the substance whose synthesis was promoted by the action of the compound 1 is hyaluronic acid by confirming the presence or absence of degradation by a hyaluronic acid-degrading enzyme (hyaluronidase).
as §1
The culture supernatant (90 μL) collected after adding the 0.01% HA solution and 10 μL of 100 TRU/mL hyaluronidase (or water for injection) were mixed and reacted overnight at 37° C., thereby performing a hyaluronidase treatment. The culture supernatant (90 μL) collected after adding the 0.01% compound 1 solution and 30 μL of 100 TRU/mL hyaluronidase (or water for injection) were mixed and reacted at 60° C. for 3 hours, thereby performing a hyaluronidase treatment. The hyaluronidase (derived from an actinomycetes) was purchased from Seikagaku Biobusiness Corporation.

[3] = tested on: synovial cells derived from patients with osteoarthritis (HFLS-OA)
Procedure: The cells derived from three patients with each disease (3 lots) were separately evaluated and the number of cases was set to 3.
After the culture supernatant was collected, the adhered cells were detached from each well. Thereafter, the cell count was measured using a trypan blue solution and a hemacytometer.

[4] = tested on: human synovial cells derived from three patients with osteoarthritis (HFLS-OA); assay: Hyaluronic acid synthesis by synovial cells ([3H] glucosamine incorporation, HPLC fractionation by molecular weight); type: cell-based; details: 48 hours, SB-807 HQ column
HAS2 mRNA = assay: Relative mRNA level (real-time PCR, ΔΔCt) in synovial cells; type: cell-based, human; details: HFLS-OA, 0.1% (w/v), 48 hours, vs control
Procedure: (§2) Compound 1 or sodium hyaluronate (HA) (ARTZ Dispo (registered trademark) (manufactured by Seikagaku Corporation)) was mixed in a solution containing a phosphate buffer solution and an α-MEM concentrated medium. Further, each reagent was added and mixed in the resulting solution so that the final concentrations were as follows: 10% (v/v) fetal bovine serum (hereinafter FBS), 10 ng/mL recombinant human IL-1β/IL-1F2 (hereinafter IL-1β), and 1% (w/v) penicillin/streptomycin. As a result, the following three solutions were prepared as test substances.
(§3) Human synovial cells derived from a patient with osteoarthritis (HFLS-OA, CELL APPLICATIONS, INC.) were subcultured and grown in a 175-cm^2 flask. In the cell culture, Basal medium (containing 10% (v/v) Growth supplement and 1% (w/v) penicillin/streptomycin) (manufactured by Cell Applications, Inc.) was used. Thereafter, the cells were seeded in a 6-well plate at 3.0×10^5 cells/2 mL/well and cultured for about 24 hours until confluence was reached. In the cell culture, α-MEM medium (containing 10% (v/v) FBS and 1% (w/v) penicillin/streptomycin) was used. […]
(§4) The cDNA sample was subjected to real-time PCR using Premix ExTaq (Perfect Real Time) (Takara Bio, Inc.), the Ct values of target genes (HAS1, HAS2, HAS3, HYAL1, HYAL2, and HYAL3) and GAPDH were measured, and relative mRNA levels were calculated by the ΔΔCt method.

HYAL2 mRNA = assay: as above; type: cell-based, human; details: HFLS-OA, 0.1% (w/v), 48 hours, vs control
Procedure: as §2, §3, §4

[5] = tested on: model rabbit with antigen-induced arthritis; assay: Hyaluronic acid synthesis in the knee joint of a model rabbit with antigen-induced arthritis; type: in vivo, Japanese white rabbit
Source text: A 0.5% (w/v %) compound 1 solution was obtained by mixing respective solutions of a 1% (w/v) compound 1 solution (phosphate buffer solution), a 10% (w/v) ovalbumin solution (phosphate buffer solution) and [^3H] glucosamine (phosphate buffer solution, 37 MBq/mL) at a ratio of 5:1:4 (v:v:v). In the preparation of a control solution, a phosphate buffer solution was used in place of the compound 1 solution. In the preparation of a sodium hyaluronate (HA) solution, ARTZ Dispo (registered trademark) (manufactured by Seikagaku Corporation) was used in place of the compound 1 solution. Further, a Normal solution not containing ovalbumin (an arthritis-inducing substance) was obtained by mixing respective solutions of a phosphate buffer solution and [^3H] glucosamine (phosphate buffer solution, 37 MBq/mL) at a ratio of 3:2 (v:v). As test substances, the following substances were used.
Ovalbumin (SIGMA) was dissolved and prepared with physiological saline (Otsuka Pharmaceutical Factory, Inc.) at 1% (w/v), and a water-in-oil emulsion was prepared with Freund's complete adjuvant (CAPPEL) at 1:1 (v:v). The emulsion was intradermally administered at a total dose of 1 mL to dozens of sites of the back of a Japanese white rabbit (male, 16 weeks of age, Oriental Yeast Industry Co., Ltd.) under general anesthesia (midazolam, xylazine, and butorphanol at 0.67 mg/kg, 5.3 mg/kg, and 0.67 mg/kg, i.v., respectively) to sensitize the rabbit. On day 12 after sensitization, the rabbit was additionally sensitized by administering the emulsion in the same manner. […]
Since glucosamine is a constituent monosaccharide of hyaluronic acid, in hyaluronic acid newly synthesized in the living body after administration of the test substance, [^3H] glucosamine is incorporated. […] Thereafter, the radioactivity (dpm, disintegrations per minute) of each fraction was measured using a scintillation counter, and the radioactivity (the amount of [^3H] glucosamine incorporated into newly synthesized hyaluronic acid) was evaluated. […]

[6] = 0.5% (w/v), 0.5 mL/joint, 48 hours

Compound	action of producing high molecular weight hyaluronic acid observed in the compound 1 group ([1]; Example 4, HFLS-RA, 48 hours, 0.01% HA, DF-Na 1.4 μg/mL, or both mixed)	molecular weight peak of hyaluronic acid produced ([1]; Example 4, HFLS-RA, DF-Na 1.4 μg/mL, 48 hours)	action of promoting hyaluronic acid synthesis ([1]; Example 4, HFLS-RA, DF-Na 0.014 to 14 μg/mL, 48 hours)	peak of the high molecular weight radioactive substance after hyaluronidase treatment ([2]; hyaluronidase (+))	production and molecular weight of high molecular weight radioactive substance ([2]; hyaluronidase (−))	cell count after cell culture [3]	molecular weight peak of hyaluronic acid produced ([4]; Example 5, 0.01% (w/v))	molecular weight of hyaluronic acid produced ([4]; Example 5, 0.1% (w/v))	expression of HAS2 mRNA (relative mRNA level) (HAS2 mRNA)	expression of HYAL2 mRNA (relative mRNA level) (HYAL2 mRNA)	molecular weight peak of hyaluronic acid synthesized in the knee joint ([5]; 0.5% (w/v) solution, 0.5 mL/joint into the knee joint cavity, joint fluid at 48 hours, normal rabbit peak higher than 2,300,000)	amount of high molecular weight hyaluronic acid produced in the knee joint [5, 6]	production amount of hyaluronic acid in the knee joint [5, 6]	action of promoting the synthesis of high molecular weight hyaluronic acid ([1]; Example 1, HFLS-RA, 0.1% and 0.01% (w/v), 48 hours)	molecular weight peak of hyaluronic acid produced ([1]; Example 1, HFLS-RA, IL-1β, 0.1% and 0.01% (w/v) test substance, 48 hours, SB-805 HQ column, control peak in the vicinity of 500,000)	molecular weight peak of hyaluronic acid produced ([1]; Example 3, HFLS-RA, 0.1% (w/v), 8, 24, 36, 48 and 72 hours, control in the vicinity of 500,000)	content of hyaluronic acid over time ([1]; Example 3, HFLS-RA, 0.1% (w/v), 8 to 72 hours)	molecular weight peak of hyaluronic acid produced ([1]; Example 4, HFLS-RA, 0.01% (w/v), 48 hours, control in the vicinity of 500,000)	molecular weight peak of hyaluronic acid produced ([1]; Example 5, synovial cells from three patients with rheumatism, 0.01% (w/v), 48 hours, SB-807 HQ column)
O=C(O)Cc1ccccc1Nc1c(Cl)cccc1Cl [DF-Na, diclofenac sodium, reference compound]	not observed	~500,000	not observed at any concentration	–	–	–	–	–	–	–	–	–	–	–	–	–	–	–	–
Aminoethanol-diclofenac-introduced sodium hyaluronate [compound 1]	–	–	–	disappearance of the peak	higher molecular weight than the radioactive substance in the 0.01% HA (hyaluronidase (−)) group	no significant increase or decrease	~2,400,000	more than 2,400,000	significantly promotes	significantly suppresses	~2,300,000	prominent as compared with the sodium hyaluronate administration group	more prominent in the compound 1 administration group even as compared with the normal group	has an action of promoting the synthesis of high molecular weight hyaluronic acid	high molecular weight exceeding the molecular weight of hyaluronic acid produced in the HA group	higher molecular weight than that in the HA groups	increases over time	more prominent than in the HA group	~2,400,000
